{"source": "patent US8021672B2", "about": "“Development of a Chlamydia sp. vaccine strain” (priority 2006, dated 2011)", "key": {"C. muridarum strain Nigg": {"test_system": "C. muridarum strain Nigg", "assay": "Effect of novobiocin treatment on replication of Chlamydiae (titration by plaque assay)", "type": "cell-based", "settings": "novobiocin 62.5 μg ml^−1 added 4 hours post infection", "from_the_text": "FIG. 1. Effect of novobiocin treatment on replication of C. muridarum strain Nigg. The novobiocin-treated Chlamydiae were harvested and plated by centrifugation to generate individual plaques for titration. The relative infectious yield of strain Nigg at each novobiocin concentration was derived by normalizing the total infectious yield per treated population against the yield from the untreated control. The graph is drawn from a single representative experiment with each point assayed in duplicate.\nCell culture media and reagents were purchased from Mediatech (Hearndon, Va.). Wells containing confluent monolayers of McCoy cells were infected at an approximate MOI of 0.5-1, before being centrifuged for 1 hour at 37° C. The infective inoculum was then removed and replaced with 1× Dulbecco's modified Eagle's medium (DMEM) supplemented with 10% heat-inactivated FBS, gentamicin (20 μg ml^−1) and 0.1 μg ml^−1 cycloheximide. We have previously determined that concentrations in excess of 250 μg ml^−1 are cytotoxic for uninfected McCoy cells. Novobiocin (Sigma, St. Louis, Mo.) was added at the indicated concentrations (up to 250 μg ml^−1) at 4 hours post infection. Infected cells were incubated at 37° C., 5% CO2 for a further 36 hours. […]\nEffect of novobiocin treatment on replication of Chlamydiae. […] The titers of novobiocin-treated bacteria were measured by plaque assays (FIG. 1). […]"}, "uninfected McCoy cells": {"test_system": "uninfected McCoy cells", "assay": "Cytotoxicity of novobiocin for uninfected host cells", "type": "cell-based", "procedure": "Cell culture media and reagents were purchased from Mediatech (Hearndon, Va.). Wells containing confluent monolayers of McCoy cells were infected at an approximate MOI of 0.5-1, before being centrifuged for 1 hour at 37° C. The infective inoculum was then removed and replaced with 1× Dulbecco's modified Eagle's medium (DMEM) supplemented with 10% heat-inactivated FBS, gentamicin (20 μg ml^−1) and 0.1 μg ml^−1 cycloheximide. We have previously determined that concentrations in excess of 250 μg ml^−1 are cytotoxic for uninfected McCoy cells. Novobiocin (Sigma, St. Louis, Mo.) was added at the indicated concentrations (up to 250 μg ml^−1) at 4 hours post infection. Infected cells were incubated at 37° C., 5% CO2 for a further 36 hours. Infected cells were harvested into SPG buffer (218 mM sucrose, 3.8 mM KH2PO4, 7.2 mM K2HPO4, 4.9 mM L-glutamate, pH 7.2) at 40 hours post infection, sonicated, and stored at −80° C. Bacteria were subsequently titrated by plaque assay or as inclusion forming units (IFU) using a genus-specific fluorescently tagged monoclonal antibody (Biorad, Hercules, Calif.)."}, "McCoy cells": {"test_system": "McCoy cells", "assay": "Iodine staining of Chlamydia-infected cells for glycogen accumulation", "type": "cell-based", "settings": "Nigg-infected McCoy monolayers, 62.5 μg ml^−1", "from_the_text": "Iodine staining of Chlamydia-infected cells. McCoy cells cultured on glass cover slips were infected as described above. At the desired point in the infection the culture medium was removed and the monolayer rinsed several times with 1×HBSS before being fixed and stained with iodine (Schachter J & Dawson, 1978) in order to detect the presence of accumulated glycogen. Stained cells were immediately photographed using a digital camera system and SPOT version 4.0.6 software from Diagnostic Instruments Inc. (Sterling Heights, Mich.).\nPlasmid-deficient C. muridarum fail to accumulate glycogen within inclusions."}, "plasmid": {"test_system": "plasmid", "settings": "20 μg ml^−1 in conjunction with imipramine; cited from earlier work"}}}
{"smiles": "CO[C@@H]1[C@@H](OC(N)=O)[C@@H](O)[C@H](Oc2ccc3c(O)c(NC(=O)c4ccc(O)c(CC=C(C)C)c4)c(=O)oc3c2C)OC1(C)C", "note": "[novobiocin]", "values": [{"measurement": "reduction of relative infectious yield of bacteria", "setting": "C. muridarum strain Nigg", "result": "at least 100 fold"}, {"measurement": "concentrations cytotoxic for uninfected McCoy cells", "setting": "uninfected McCoy cells", "result": "> 250", "unit": "µg/mL"}, {"measurement": "iodine staining of inclusions under novobiocin treatment", "setting": "McCoy cells", "result": "variable iodine staining of inclusions"}, {"measurement": "effect on plasmid copy number", "setting": "plasmid", "result": "plasmid copy number increases"}]}
